Measured values reported in patent US20140011277A1, “NOVEL THERAPEUTIC STRATEGIES FOR IMPROVING AN ANTICANCER TREATMENT” (CENTRE NATIONAL DE LA RECHERCHE SCIENTIFIQUE (CNRS), priority 2010, published 2014).

Legend:
human Patched protein [1] = target: T1, human Patched protein (Homo sapiens, UniProt Q13635); experiment: Measurement of the efflux of doxorubicin on xenopus oocytes; format: cell-based; design: expressed in transfected cells; host or cells: Xenopus laevis oocytes (RNA injection); conditions: oocytes injected with 10 or 20 ng RNA encoding human Patched protein vs non-injected; 100 μM doxorubicin 16 hrs, supernatant after 90 mins
T1 sequence (Q13635 1-1447): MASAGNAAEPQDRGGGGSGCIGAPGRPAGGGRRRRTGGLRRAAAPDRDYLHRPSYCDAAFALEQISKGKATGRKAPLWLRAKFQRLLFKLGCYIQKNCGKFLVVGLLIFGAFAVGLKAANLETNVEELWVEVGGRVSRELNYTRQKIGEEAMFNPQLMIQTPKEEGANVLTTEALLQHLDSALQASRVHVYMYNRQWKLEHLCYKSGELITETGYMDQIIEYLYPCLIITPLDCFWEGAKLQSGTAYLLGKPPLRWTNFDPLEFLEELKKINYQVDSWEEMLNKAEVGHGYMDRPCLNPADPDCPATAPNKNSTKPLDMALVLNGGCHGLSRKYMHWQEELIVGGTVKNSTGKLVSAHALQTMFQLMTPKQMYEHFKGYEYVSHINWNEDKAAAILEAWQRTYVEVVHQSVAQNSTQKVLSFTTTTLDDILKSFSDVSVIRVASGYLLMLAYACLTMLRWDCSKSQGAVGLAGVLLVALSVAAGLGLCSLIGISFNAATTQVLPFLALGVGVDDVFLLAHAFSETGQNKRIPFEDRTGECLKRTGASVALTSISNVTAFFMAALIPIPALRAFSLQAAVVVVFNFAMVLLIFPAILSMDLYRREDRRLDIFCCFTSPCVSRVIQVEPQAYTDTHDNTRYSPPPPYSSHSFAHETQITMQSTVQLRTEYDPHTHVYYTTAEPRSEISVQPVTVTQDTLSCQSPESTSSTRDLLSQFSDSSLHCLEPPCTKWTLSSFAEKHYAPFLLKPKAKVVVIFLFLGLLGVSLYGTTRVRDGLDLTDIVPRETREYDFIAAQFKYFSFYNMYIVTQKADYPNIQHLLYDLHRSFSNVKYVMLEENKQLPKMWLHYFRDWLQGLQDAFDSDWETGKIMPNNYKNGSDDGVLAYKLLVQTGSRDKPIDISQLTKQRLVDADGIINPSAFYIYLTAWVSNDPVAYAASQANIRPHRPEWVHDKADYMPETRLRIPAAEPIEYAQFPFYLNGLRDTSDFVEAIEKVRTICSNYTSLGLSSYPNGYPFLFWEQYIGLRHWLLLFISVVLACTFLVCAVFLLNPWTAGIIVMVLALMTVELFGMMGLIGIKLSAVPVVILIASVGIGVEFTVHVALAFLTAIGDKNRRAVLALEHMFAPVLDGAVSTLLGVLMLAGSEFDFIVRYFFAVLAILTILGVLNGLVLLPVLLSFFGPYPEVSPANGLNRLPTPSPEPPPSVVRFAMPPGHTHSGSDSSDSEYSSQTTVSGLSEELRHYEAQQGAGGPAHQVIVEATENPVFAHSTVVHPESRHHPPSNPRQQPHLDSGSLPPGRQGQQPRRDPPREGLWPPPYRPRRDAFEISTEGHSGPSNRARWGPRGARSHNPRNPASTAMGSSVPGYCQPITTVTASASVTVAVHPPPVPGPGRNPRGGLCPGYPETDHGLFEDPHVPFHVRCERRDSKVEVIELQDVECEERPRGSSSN
Experimental: The oocytes are collected by surgery on an Xenopus laevis female anaesthetized with 0.2% of MS222 (tricaine methanesulfonate) in accordance with the procedures recommended by the ethics committee. The oocytes are washed with an MBS saline solution, pH 7.4 (NaCl 85 mM, KCl 1 mM, NaHCO32,4 mM, MgSO40.82 mM, Ca(NO3)20.33 mM, CaCl2 0.41 mM, HEPES 10 mM, NaOH 4.5 mM) supplemented with 50 U/ml of penicillin and 50 μg/ml of streptomycin. The oocytes are then defolliculated by incubation for 16 hrs at 19° C. with 1.8 mg/ml of collagenase then 30 mins with MBS without calcium, and placed in MBS. 50 nL containing 10 or 20 ng of RNA encoding human Patched protein are injected per oocyte. The oocytes are incubated for 3 days at 19° C. in MBS. 4 lots of 10 control oocytes (not injected) and oocytes injected with RNA encoding human Patched protein were incubated for 16 hrs at 19° C. with 100 μM of doxorubicin. After rinsing, the oocytes are placed in MBS. The supernatant is sampled after 90 mins and the doxorubicin fluorescence present in the sample is measured by fluorescence (λex=490+/−10 nm, λem=610+/−10 nm).
The experiments being carried out on 4 lots of 10 control oocytes (non-injected) and oocytes injected with RNAs encoding human Patched protein, the average of the values obtained for the 4 lots is shown.

human Patched protein [2] = target: T1, human Patched protein; experiment: Binding of doxorubicin to Patched protein (quenching of doxorubicin fluorescence on yeast membrane preparations); conditions: 50 nM doxorubicin added to 30 μg of membranes; Patched-containing vs K699 control membranes
Experimental: 50 nM of doxorubicin are added to 30 μg of membranes and the doxorubicin fluorescence is measured as a function of time.

[3] = tested on: yeasts expressing human Patched protein; experiment: Resistance of yeasts to doxorubicin (growth, OD at 600 nm over time); format: cell-based, S. cerevisiae; conditions: 10 μg/mL doxorubicin in rich medium, 18° C.; yeasts expressing human Patched protein vs K699 control yeasts
Experimental: Yeasts not expressing human Patched protein (controls) K699 and yeasts expressing human Patched protein were cultured at 18° C. in normal rich medium and in rich medium with 10 μg of added doxorubicin per mL of medium.
The OD of the yeasts at 600 nm is measured over time.

human Patched protein [4] = target: T1, human Patched protein; experiment: Measurement of the efflux of doxorubicin on yeasts; format: cell-based; design: expressed in transfected cells; host or cells: Xenopus laevis oocytes (RNA injection); conditions: yeasts loaded 2 hours with 10 μM doxorubicin, supernatant after 20 mins; Patched-expressing vs K699 control
Experimental: After a centrifugation (5 mins at 6800 g) to remove all cell fragments, the reading of the doxorubicin fluorescence (λex=490+/−10 nm, λem=610+/−10 nm) was carried out on 200 μL of supernatant in a plate reader (FLUOstar, Labtech). • on yeasts: K699 control yeasts and yeasts expressing human Patched protein were cultured at 18° C. up to an OD600 of 7 on a rich medium with 2% of added D-glucose.
The cells are then centrifuged, (5 mins. 3000 g), washed 4 times with water and finally resuspended carefully to an OD600 of 10 in 50 mM NaOH-Hepes buffer (pH 7.0) and incubated for 2 hours with 10 μM of doxorubicin.
After rinsing, the yeasts are resuspended in 50 mM NaOH-Hepes buffer (pH 7.0).
After 20 mins, the yeasts are centrifuged and doxorubicin contained in the supernatant is measured by fluorescence (λex=490+/−10 nm, λem=610+/−10 nm). • On xenopus oocytes: obtaining and preparing the oocytes

COc1cccc2c1C(=O)c1c(O)c3c(c(O)c1C2=O)C[C@@](O)(C(=O)CO)C[C@@H]3O[C@H]1C[C@H](N)[C@H](O)[C@H](C)O1 [doxorubicin]
efflux of doxorubicin (fluorescence of supernatant) (human Patched protein [1]): increase in the efflux of doxorubicin | quenching of doxorubicin fluorescence (binding to Patched protein) (human Patched protein [2]): rapid and significant quenching of the doxorubicin fluorescence | resistance of yeasts to doxorubicin [3]: yeasts expressing human Patched protein resist better than the control yeasts | efflux of doxorubicin (fluorescence of supernatant) (human Patched protein [4]): increase in the efflux of doxorubicin
